For 3 molecules, IC50 results are on record in US10800741B2 (ANCUREALL PHARMACEUTICAL (SHANGHAI) CO., LTD., priority 2017, dated 2020).

pIC50: −log10 of the molar value.

One test concerns AN3-CA. Description: In vitro growth inhibition of AN3-CA cells. The format is cell-based. The following applies: Homo sapiens, FGFR2 mutant. On the procedure:
(§1) Adherent cells were digested with 0.25% trypsin-EDTA (Gibco). Suspension culture cells were collected by centrifugation (1700 rpm, 3 minutes). The supernatant was discarded and the cells were counted. According to each cell growth cycle, different concentrations of cells were prepared (5˜10×10^4 cells per ml), and inoculated to 96-well plates (Corning), with 100 μl per well, and incubated overnight at 37° C., 5% CO2. The next day, the test compound was added to the cultured cells (2 wells in parallel). The final concentration of the solvent was less than 1/1,000. The cells were further cultured for 3 to 5 days and assayed by MTT.
(§2) The MTT test reagent was a Dojindo CCK8 kit and the Microplate Reader was a THERMO […] FC instrument.
(§3) The adherent cells were taken out from the cell culture medium, and immediately added to a freshly prepared complete medium containing 10% CCK8 (5% FBS), 100 ul per hole. The suspended cells were directly added to a CCK8 reagent until reaching a final concentration of 10% and cultured for 1 to 4 hours. When a dark yellow color could be observed in the solvent control wells, the absorbance value at OD450 nm was measured and the cell growth rate was calculated according to the following formula: Cell Growth Rate (%)=100×(T−T0)/(C−T0)
(§4) T=optical density of drug-treated cell wells−optical density of blank control wells; T0=optical density of cell wells before drug treatment−optical density of blank control wells; C=optical density of solvent control wells−optical density of blank control wells. […] The experiments were repeated 1 to 3 times and a statistical analysis of data was conducted.
(§5) Mutations in the FGFR1-4 gene often occur in different types of cancer patients. In order to test the growth inhibition activity of the present compound against tumor cells expressing different FGFR variants, tumor cell lines expressing representative FGFR1-4 were selected for further determining the activity of compounds 25, 66, 38 and 95 of the present invention. BGJ398, a selective inhibitor of FGFR1-4, was used as the control compound. The specific test method is the same as test example 1.

The subject of a further test is MOLM-13 (FLT3-ITD). Description: In vitro growth inhibition of MOLM-13 tumor cells (MTT/CCK8). It counts as cell-based, Human. The settings on record: Homo sapiens, MOLM-13; in vitro growth inhibition (or induction of apoptosis), cells cultured 3 to 5 days, MTT (CCK8); read-out: IC50 MOLM-13 (FLT3-ITD).
The test system of the next test is A2780. Description: In vitro growth inhibition of PI3KCA amplified/mutant tumor cells A2780. It counts as cell-based. The settings on record: Homo sapiens; A2780; PIK3CA E365K; read-out: IC50 growth inhibition. On the procedure: (§6) Suspension culture cells were collected by centrifugation (1700 rpm, 3 minutes). The supernatant was discarded and the cells were counted. According to each cell growth cycle, different concentrations of cells were prepared (5˜10×10^4 cells per ml), and inoculated to 96-well plates (Corning), with 100 μl per well, and incubated overnight at 37° C., 5% CO2. The next day, the test compound was added to the cultured cells (2 wells in parallel). The final concentration of the solvent was less than 1/1,000. The cells were further cultured for 3 to 5 days and assayed by MTT.
(§7) The adherent cells were taken out from the cell culture medium, and immediately added to a freshly prepared complete medium containing 10% CCK8 (5% FBS), 100 ul per hole. The suspended cells were directly added to a CCK8 reagent until reaching a final concentration of 10% and cultured for 1 to 4 hours.
as §4

Another test has as its system H1703 (PDGFRa amp). Description: In vitro growth inhibition of H1703 tumor cells (MTT/CCK8). The format is cell-based, Human. The following applies: Homo sapiens, NCI-H1703; in vitro growth inhibition (or induction of apoptosis), cells cultured 3 to 5 days, MTT (CCK8); read-out: IC50 H1703 (PDGFRa amp).
For another test, the system named is Cal-120. Description: In vitro growth inhibition of Cal-120 cells. It counts as cell-based. The following applies: Homo sapiens, FGFR1 amp. On the procedure:
as §1, §2, §3, §4, §5

The next test has as its system Hep3B2 (FGFR3/4+++). Description: In vitro growth inhibition of Hep3B2 tumor cells (MTT/CCK8). The settings on record: Homo sapiens, Hep3B; in vitro growth inhibition (or induction of apoptosis), cells cultured 3 to 5 days, MTT (CCK8); read-out: IC50 Hep3B2 (FGFR3/4+++). The format is cell-based, Human.
In a further test the test system is JIMT-1. Description: In vitro growth inhibition of JIMT-1 cells. It counts as cell-based. The settings on record: Homo sapiens, FGFR1 amp, HER2 amp, PI3KCA C420R. On the procedure: as §1, §2, §3, §4, §5
The next test relates to KYSE70. Description: In vitro growth inhibition of PI3KCA amplified/mutant tumor cells KYSE70. The following applies: Homo sapiens, KYSE-70; KYSE70; PI3KCA amp; KIT G779C; read-out: IC50 growth inhibition. The format is cell-based. On the procedure: as §6, §7, §4
The next test relates to H1581 (FGFR1 amp). Description: In vitro growth inhibition of H1581 tumor cells (MTT/CCK8). The settings on record: Homo sapiens, NCI-H1581; in vitro growth inhibition (or induction of apoptosis), cells cultured 3 to 5 days, MTT (CCK8); read-out: IC50 H1581 (FGFR1 amp). It counts as cell-based, Human.
The next test concerns HCT116. Description: In vitro growth inhibition of PI3KCA amplified/mutant tumor cells HCT116. The format is cell-based. The settings on record: Homo sapiens; HCT-116; PI3KCAH1047R; KRAS G13D; read-out: IC50 growth inhibition. On the procedure: as §6, §7, §4
In a further test the test system is AGS. Description: In vitro growth inhibition of PI3KCA amplified/mutant tumor cells AGS. It counts as cell-based. The settings on record: Homo sapiens, PI3KCA E453K/E545A, KRAS G12D, read-out: IC50 growth inhibition. On the procedure:
as §6, §7, §4

The subject of another test is Hep G2. Description: In vitro growth inhibition of Hep G2 cells. It counts as cell-based. The settings on record: Homo sapiens, HepG2, FGFR3+++, FGFR4 +++. On the procedure:
as §1, §2, §3, §4, §5

The next test has as its system SNU-16. Description: In vitro growth inhibition of SNU-16 cells. The format is cell-based. The following applies: Homo sapiens, FGFR2 amp. On the procedure:
as §1, §2, §3, §4, §5

Turning to `CN1CCN(CCCOc2cc3nccc(Oc4ccc(NC(=O)Nc5cc(C(C)(C)C)n[nH]5)c(Cl)c4Cl)c3cc2C(N)=O)CC1` [Compound 95], the pIC50 in the test with AN3-CA was 8.41; with MOLM-13 (FLT3-ITD) it was 8.76; with A2780, 8.04; in the test on H1703 (PDGFRa amp) it was 8.42; in the test on Cal-120, 8.01; in the test with Hep3B2 (FGFR3/4+++), 8.07. The pIC50 with JIMT-1 is 7.69; in the test on KYSE70, 7.72; with H1581 (FGFR1 amp), 8.10; in the test with HCT116, 7.48; with AGS it was 7.40; in the test on Hep G2, 6.89. Besides, in the test on SNU-16, the pIC50 was 8.48.
As for `COCCOc1cc2nccc(Oc3ccc(NC(=O)Nc4cc(C(C)(C)C)n[nH]4)c(Cl)c3)c2cc1NC(C)=O` [Compound 66, N-[4-{4-[3-(5-tert-butyl-2H-pyrazol-3-yl)-ureido]-3-chloro-phenoxy}-7-(2-methoxy-ethoxy)-quinolin-6-yl]-acetamide], the pIC50 with AN3-CA was 8.40; in the test with MOLM-13 (FLT3-ITD) it was 9.06; with A2780, 8.11; in the test with H1703 (PDGFRa amp) it was 8.12; in the test on Cal-120, 8.01; in the test on Hep3B2 (FGFR3/4+++) it was 8.22. For the same molecule, the pIC50 with JIMT-1 is 7.71; with KYSE70, 7.53; with H1581 (FGFR1 amp), 8.69; with HCT116, 7.57; in the test on AGS, 7.36; with Hep G2, 7.10. In the test with SNU-16, this molecule had a pIC50 of 9.00.
As for `COc1cc2nccc(Oc3ccc(NC(=O)Nc4cc(C(C)(C)C)nn4C)c(Cl)c3Cl)c2cc1C(N)=O` [Compound 38, 4-{4-[3-(5-tert-butyl-2-methyl-2H-pyrazol-3-yl)-ureido]-2,3-dichloro-phenoxy}-7-methoxyquinolin-6-carboxamide], the pIC50 is 8.44 with AN3-CA; 9.07 in the test on MOLM-13 (FLT3-ITD); 8.04 with A2780; 8.74 in the test with H1703 (PDGFRa amp); 8.01 in the test on Cal-120; 8.37 with Hep3B2 (FGFR3/4+++). The pIC50 with JIMT-1 was 7.72; in the test on KYSE70, 8.01; in the test with H1581 (FGFR1 amp), 9.54; in the test on HCT116 it was 7.92; in the test on AGS, 7.39; in the test with Hep G2 it was 6.92. The same molecule gave a pIC50 in the test on SNU-16 of 8.69.
